Test system: 1AS cells
Assay: Growth of subcutaneous 1AS carcinomas in BDX rats
Format: in vivo, rat
Details: 1AS cells s.c., 4-5 mg/kg each day in DMSO, FIG. 7
Experimental: 1AS cells (5×10^5) were injected subcutaneously into 2 groups of BDX rats (8 rats per group). One group was subsequently injected with 100 μl of DMSO/animal per day up to the end of the experiment. The other group was injected with 100 μl of MAZ51 (10 mg/ml in DMSO)/animal, equivalent to 4-5 mg/kg, each day. The tumor volume was measured normally measured regularly after the injection of the tumor cells.
FIG. 7: Depiction of the tumor volume as a function of the number of days after tumor cell injection depending on the treatment of the 1AS tumor cells with MAZ51.

CN(C)c1ccc(C=C2C(=O)Nc3ccccc32)c2ccccc12 [MAZ51, 3-(4-Dimethylaminonaphthalen-1-ylmethylene)-1,3-dihydroindol-2-one]
inhibition of tumor growth (tumor volume): considerably inhibited

— patent publication US8324267B2, “Kinase inhibitors and the use thereof” (Forschungzentrum Karlsruhe GmbH, priority 2001, dated 2012)
